# Active and inactive are the calls of the source. The calls are words filed in the database; no cut-off is given here.
# Experiments:
# Cell membrane [1] = assay: Induction of inner membrane permeabilization in Staphylococcus aureus assessed as increase in fluorescence intensity at 16 microg/ml incubated for 15 mins by PI staining based microplate reader; format: cell membranes; conditions: dose 16.0 µg/ml
# Cell membrane [2] = assay: Induction of Cytoplasmic membrane depolarization in Staphylococcus aureus at 16 microg/ml incubated for 15 mins by DiSC3(5) dye based fluorescence microplate reader; format: cell membranes; conditions: dose 16.0 µg/ml
# Enterococcus faecalis = assay: Antimicrobial activity against Enterococcus faecalis ATCC 29212 assessed as inhibition of bacterial growth incubated for 16 to 18 hrs by CLSI protocol based Muller Hinton broth assay; format: functional; conditions: time 16-18 hrs
# [3] = test system: Stenotrophomonas maltophilia; assay: Antimicrobial activity against Stenotrophomonas maltophilia ATCC 17808 assessed as inhibition of bacterial growth incubated for 16 to 18 hrs by CLSI protocol based Muller Hinton broth assay; format: functional; conditions: time 16-18 hrs
# Escherichia coli = assay: Antimicrobial activity against Escherichia coli ATCC 25922 assessed as inhibition of bacterial growth incubated for 16 to 18 hrs by CLSI protocol based Muller Hinton broth assay; format: functional; conditions: time 16-18 hrs
# Staphylococcus aureus [4] = assay: Antimicrobial activity against Staphylococcus aureus ATCC 29213 assessed as inhibition of bacterial growth incubated for 16 to 18 hrs by CLSI protocol based Muller Hinton broth assay; format: functional; conditions: time 16-18 hrs
# [5] = Hemolytic activity in defibrinated sheep RBC incubated for 1 hrs; format: toxicity, cell-based, Ovis aries, Erythrocyte; conditions: defibrinated sheep red blood cells
# [6] = Cytotoxicity against human SW620 cells assessed as cell survival rate at 64 microg/ml incubated for 48 hrs by CCK8 assay relative to control; format: toxicity, cell-based, SW-620; conditions: at 64 µg/mL, read-out: Activity
# [7] = Cytotoxicity against rat HBZY-1 cells assessed as cell survival rate at 64 microg/ml incubated for 48 hrs by CCK8 assay relative to control; format: toxicity, cell-based; conditions: at 64 µg/mL, read-out: Activity
# Staphylococcus aureus [8] = assay: Antibacterial activity against Staphylococcus aureus assessed as inhibition of bacterial growth by measuring fold change in MIC incubated for 6 hrs in presence of 50% fetal bovine serum by CLSI protocol based Muller Hinton broth assay; format: functional
# Staphylococcus aureus [9] = assay: Antibacterial activity against Staphylococcus aureus assessed as inhibition of bacterial growth by measuring fold change in MIC incubated for 6 hrs in presence of 50% fetal bovine plasma by CLSI protocol based Muller Hinton broth assay; format: functional
# Cell membrane [10] = assay: Induction of inner membrane permeabilization in Staphylococcus aureus assessed as fluorescence intensity at 16 microg/ml incubated for 15 mins by PI staining based microplate reader; format: cell membranes; conditions: dose 16.0 µg/ml
# Staphylococcus aureus [11] = assay: Antibacterial activity against Staphylococcus aureus assessed as inhibition of bacterial growth by measuring fold change in MIC incubated for 6 hrs in presence of defibrinated sheep 50% plasma by CLSI protocol based Muller Hinton broth assay; format: functional
# Cell membrane [12] = assay: Induction of cell membrane damage in Escherichia coli assessed as nucleic acid leakage at 4 times of MIC incubated for 2 hrs by n ultra-micro-volume spectrophotometric analysis; format: cell membranes
# Staphylococcus aureus [13] = assay: Antibacterial activity against Staphylococcus aureus assessed as inhibition of bacterial growth incubated for 16 to 20 hrs by CLSI protocol based broth microdilution method; format: functional; conditions: time 16-20 hrs
# [14] = Hemolytic activity in sheep RBC assessed as hemolysis incubated for 1 hrs by absorbance based assay; format: toxicity, cell-based, Ovis aries, Erythrocyte; conditions: sheep red blood cells
# Staphylococcus aureus [15] = assay: Antibacterial activity against Staphylococcus aureus assessed as inhibition of bacterial growth incubated for 6 hrs in presence of 50% fetal bovine plasma by CLSI protocol based Muller Hinton broth assay; format: functional
# Staphylococcus aureus [16] = assay: Antibacterial activity against Staphylococcus aureus assessed as inhibition of bacterial growth incubated for 6 hrs in presence of 50% fetal bovine serum by CLSI protocol based Muller Hinton broth assay; format: functional
# Staphylococcus aureus [17] = assay: Antibacterial activity against Staphylococcus aureus assessed as inhibition of bacterial growth incubated for 6 hrs in presence of defibrinated sheep 50% plasma by CLSI protocol based Muller Hinton broth assay; format: functional
# Staphylococcus aureus [18] = assay: Antibacterial activity against Staphylococcus aureus assessed as reduction in bacterial colony at 8 times of MIC incubated for 8 hrs by time-kill kinetics assay; format: functional, organism-based
Compound,MIC (Enterococcus faecalis) [mg/L],MIC [3] [mg/L],MIC (Escherichia coli) [mg/L],MIC (Staphylococcus aureus [4]) [mg/L],HC50 at 1 h [5] [µg/mL],other results
O=C(O)c1cn(C2CC2)c2cc(N3CCNCC3)c(F)cc2c1=O,–,–,–,–,–,Activity (Cell membrane [1]): inactive; Activity (Cell membrane [2]): inactive
O=C(O)c1cn(C2CC2)c2cc(N3CCN(C(=O)c4cc[n+](Cc5ccccc5)cc4)CC3)c(F)cc2c1=O.[Br-],8,4,8,16,> 1280,–
GENTAMICIN,–,–,–,–,–,Activity (Cell membrane [2]): inactive
CC(C)(C)c1ccc(C[n+]2ccc(C(=O)N3CCN(c4cc5c(cc4F)c(=O)c(C(=O)O)cn5C4CC4)CC3)cc2)cc1.[Br-],4,4,4,8,> 1280,–
O=C(O)c1cn(C2CC2)c2cc(N3CCN(C(=O)c4cc[n+](Cc5ccc(F)cc5)cc4)CC3)c(F)cc2c1=O.[Br-],8,4,4,16,> 1280,–
CCCCCCCNC(=O)C[n+]1ccc(C(=O)N2CCN(c3cc4c(cc3F)c(=O)c(C(=O)O)cn4C3CC3)CC2)cc1.[Br-],2,32,4,4,> 1280,–
CCCCNC(=O)C[n+]1ccc(C(=O)N2CCN(c3cc4c(cc3F)c(=O)c(C(=O)O)cn4C3CC3)CC2)cc1.[Br-],16,64,16,16,> 1280,–
CCCCCNC(=O)C[n+]1cccc(C(=O)N2CCN(c3cc4c(cc3F)c(=O)c(C(=O)O)cn4C3CC3)CC2)c1.[Br-],64,> 64,32,32,> 1280,–
O=C(O)c1cn(C2CC2)c2cc(N3CCN(C(=O)c4cc[n+](Cc5ccc(C(F)(F)F)cc5)cc4)CC3)c(F)cc2c1=O.[Br-],8,4,4,16,> 1280,–
CCCNC(=O)C[n+]1cccc(C(=O)N2CCN(c3cc4c(cc3F)c(=O)c(C(=O)O)cn4C3CC3)CC2)c1.[Br-],64,> 64,16,64,> 1280,–
CCCNC(=O)C[n+]1ccc(C(=O)N2CCN(c3cc4c(cc3F)c(=O)c(C(=O)O)cn4C3CC3)CC2)cc1.[Br-],16,> 64,16,16,> 1280,–
CCCCCCCCCNC(=O)C[n+]1ccc(C(=O)N2CCN(c3cc4c(cc3F)c(=O)c(C(=O)O)cn4C3CC3)CC2)cc1.[Br-],2,16,4,4,> 1280,–
CCCCCCCNC(=O)C[n+]1cccc(C(=O)N2CCN(c3cc4c(cc3F)c(=O)c(C(=O)O)cn4C3CC3)CC2)c1.[Br-],8,64,8,8,> 1280,–
C[C@@H](O)[C@H]1C(=O)N2C(C(=O)O)=C(S[C@@H]3CN[C@H](C(=O)N(C)C)C3)[C@H](C)[C@H]12 [MEROPENEM],–,0.06,0.03,–,–,–
C=C[C@]1(C)C[C@@H](OC(=O)CS[C@@H]2C[C@H]3CC[C@@H](C2)N3C)[C@]2(C)[C@H](C)CC[C@]3(CCC(=O)[C@H]32)[C@@H](C)[C@@H]1O [RETAPAMULIN],–,–,–,–,–,"viability at 48 h, 64 microg/ml [6]: 4.7%; viability at 48 h, 64 microg/ml [7]: 1.7%"
CC[C@H](C)[C@H](NC(=O)CN)C(=O)NCC(=O)N[C@@H](C)C(=O)N[C@H](C(=O)N[C@@H](CC(C)C)C(=O)N[C@@H](CCCCN)C(=O)N[C@H](C(=O)N[C@@H](CC(C)C)C(=O)N[C@H](C(=O)N[C@H](C(=O)NCC(=O)N[C@@H](CC(C)C)C(=O)N1CCC[C@H]1C(=O)N[C@@H](C)C(=O)N[C@@H](CC(C)C)C(=O)N[C@H](C(=O)N[C@@H](CO)C(=O)N[C@@H](Cc1c[nH]c2ccccc12)C(=O)N[C@H](C(=O)N[C@@H](CCCCN)C(=O)N[C@@H](CCCNC(=N)N)C(=O)N[C@@H](CCCCN)C(=O)N[C@@H](CCCNC(=N)N)C(=O)N[C@@H](CCC(N)=O)C(=O)N[C@@H](CCC(N)=O)C(N)=O)[C@@H](C)CC)[C@@H](C)CC)[C@@H](C)O)[C@@H](C)O)C(C)C)C(C)C [MELITTIN],2,8,–,–,–,"fold change (FC) (Staphylococcus aureus [8]): 32; fold change (FC) (Staphylococcus aureus [9]): 32; Activity (Cell membrane [2]): Active; Flu intensity (Cell membrane [10]): 600; viability at 48 h, 64 microg/ml [6]: 5.7%; viability at 48 h, 64 microg/ml [7]: 1.4%; fold change (FC) (Staphylococcus aureus [11]): 32; Activity (Cell membrane [12]): Active"
CCCCCCCCNC(=O)C[n+]1cccc(C(=O)N2CCN(c3cc4c(cc3F)c(=O)c(C(=O)O)cn4C3CC3)CC2)c1.[Br-],8,16,8,8,> 1280,–
CCCCCCCNC(=O)C[N+](C)(C)CCCOc1ccc(OCCC[N+](C)(C)CC(=O)NCCCCCCC)cc1.[Br-].[Br-],–,–,–,–,–,MIC (Staphylococcus aureus [13]): 0.5 mg/L; HC50 at 1 h [14]: 1220 µg/mL
O=C(O)c1cn(C2CC2)c2cc(N3CCN(C(=O)c4cc[n+](Cc5ccc(-c6ccccc6)cc5)cc4)CC3)c(F)cc2c1=O.[Br-],32,4,4,4,> 1280,–
O=C(O)c1cn(C2CC2)c2cc(N3CCN(C(=O)C[n+]4ccc(-c5ccccc5)cc4)CC3)c(F)cc2c1=O.[Br-],8,16,16,16,> 1280,–
CCCCCCNC(=O)C[n+]1cccc(C(=O)N2CCN(c3cc4c(cc3F)c(=O)c(C(=O)O)cn4C3CC3)CC2)c1.[Br-],32,64,16,16,> 1280,–
COLISTIN,–,–,–,–,–,fold change (FC) (Staphylococcus aureus [8]): 4; fold change (FC) (Staphylococcus aureus [9]): 2; MIC (Staphylococcus aureus [15]): 16 mg/L; MIC (Staphylococcus aureus [16]): 8 mg/L; MIC (Staphylococcus aureus [17]): 16 mg/L; fold change (FC) (Staphylococcus aureus [11]): 4
O=C(O)c1cn(C2CC2)c2cc(N3CCN(C(=O)c4cc[n+](Cc5ccc(Cl)cc5)cc4)CC3)c(F)cc2c1=O.[Br-],8,8,8,16,> 1280,–
CCCCNC(=O)C[n+]1cccc(C(=O)N2CCN(c3cc4c(cc3F)c(=O)c(C(=O)O)cn4C3CC3)CC2)c1.[Br-],> 64,> 64,32,64,> 1280,–
CCCCCCNC(=O)C[n+]1ccc(C(=O)N2CCN(c3cc4c(cc3F)c(=O)c(C(=O)O)cn4C3CC3)CC2)cc1.[Br-],8,16,8,8,> 1280,–
CN[C@H](CC(C)C)C(=O)N[C@H]1C(=O)N[C@@H](CC(N)=O)C(=O)N[C@H]2C(=O)N[C@H]3C(=O)N[C@H](C(=O)N[C@H](C(=O)O)c4cc(O)cc(O)c4-c4cc3ccc4O)[C@H](O)c3ccc(c(Cl)c3)Oc3cc2cc(c3O[C@@H]2O[C@H](CO)[C@@H](O)[C@H](O)[C@H]2O[C@H]2C[C@](C)(N)[C@H](O)[C@H](C)O2)Oc2ccc(cc2Cl)[C@H]1O [VANCOMYCIN],2,–,–,–,–,Activity (Staphylococcus aureus [18]): Active
C=C[C@]1(C)C[C@@H](OC(=O)CSCCN(CC)CC)[C@]2(C)[C@H](C)CC[C@]3(CCC(=O)[C@H]32)[C@@H](C)[C@@H]1O [TIAMULIN],–,–,–,–,–,"viability at 48 h, 64 microg/ml [6]: 32.9%; viability at 48 h, 64 microg/ml [7]: 85.9%"
CCCCCCCCCNC(=O)C[n+]1cccc(C(=O)N2CCN(c3cc4c(cc3F)c(=O)c(C(=O)O)cn4C3CC3)CC2)c1.[Br-],8,32,8,8,> 1280,–
CCCCCNC(=O)C[n+]1ccc(C(=O)N2CCN(c3cc4c(cc3F)c(=O)c(C(=O)O)cn4C3CC3)CC2)cc1.[Br-],8,64,16,16,> 1280,–

# Source: ChEMBL document CHEMBL5543099 (Eur J Med Chem, 2024)
